Bounds are passed on as bounds.

Compound `O=C(Nc1ccc(O)cc1O)c1cc(Cl)c(O)c(Cl)c1` gave a melting point of 235 to 237 °C.

In turn, `COc1cc(N)c(Cl)cc1C(=O)OCC1CCN(CCCOc2ccc(F)cc2)CC1` gave a melting point of 140 °C.

In turn, `CC(C)(C)OC(=O)N1C(CC2CCCCC2)C(C(O)CNS(=O)(=O)C(c2ccccc2)c2ccccc2)OC1(C)C` (stereo not drawn) yielded a melting point of 58 to 65 °C.

As for `Nc1nc2ccccc2c2c1nc(CO)n2CCCCNC(=O)C1CCCC1`, the melting point was in the range of 183 to 186 °C.

In turn, `Fc1cccc(F)c1C1=NCC(=S)Nc2ccc(Cl)cc21` had a melting point of 222 to 224 °C.

For the compound `COC(=O)c1cc(O)cc(-c2ccccc2)c1`, the melting point was in the range of 108 to 110 °C.

In the case of `CCCCCCC1CC(=O)C=C(N)C1` (stereo not drawn), the melting point came out at 113 °C.

`Cc1ccn(C)c(=S)n1` yielded a melting point of 138 to 140 °C.

As to `Cc1ccc(F)cc1C(=O)Nc1ccc(C(=O)N2CCCCc3sccc32)cn1`, the melting point lay in the range of 178 to 180 °C.

Consider `CCCCNC(=O)n1cc[nH]c1=S`, for which the melting point fell in the range of 66 to 68 °C.

`COC(=O)CCc1ccc(N2CCN(C34CCC(C#N)(CC3)CC4)C2=O)cc1` registered a melting point of 195 to 197 °C.

`CCCC(=NOCC)C1=C(O)CC(c2c(OC)nc(C)c3c2CCCC3=O)CC1=O` (stereo not drawn) registered a melting point of 162 °C.

In turn, `O=S(=O)(Nc1cccc(Oc2cccc3cccnc23)c1)c1ccc(Cl)cc1` displayed a melting point of 190 to 191 °C.

As for `CC[C@H]1CC[C@H](c2ccc(CCc3ccc(OC(F)F)cc3)cc2)CC1`, the melting point amounted to 51 °C.

Compound `CCCC1Cc2c(c(C)c(C)c3oc(C(=O)O)cc23)C1=O` (stereo not drawn) came in with a melting point of 287 °C.

The compound `CC1(O)Nc2cc(O)c(C(C)(C)C)cc2O1` (stereo not drawn) had a melting point of 203 to 205 °C.

For the compound `CC(=O)N(NC(=O)c1ccccc1)[C@@H]1c2cc(C#N)ccc2OC(C)(C)[C@H]1O` (relative stereo), the melting point lay within 212 to 213 °C.

`O=C(O)C1=CC(CF)(CF)Oc2ccc(C(F)(F)F)cc21` came in with a melting point of 159 to 161 °C.

Take `COC(=O)c1ccc(NC(=O)c2cc(C(C)C)c(C(C)C)o2)cc1Cl`: the melting point lay within 123 to 124 °C.

For the compound `CCCCC[C@H]1CC[C@H](c2cnc(-c3ccc(C#N)cc3)nc2)CC1`, the melting point came to 100 °C.

Take `CC(C)(C)OC(=O)N1CCN(c2ccc([N+](=O)[O-])cc2C#N)CC1`: the melting point fell in the range of 141 to 142 °C.

Compound `Cc1ccc(C)c(OCCCC(C)(C)C(=O)Nc2cccc(-c3nnc(C)o3)c2)c1` registered a melting point of 90 to 92 °C.

As to `O=C(NCc1cccnc1)c1cc(N2CCN(Cc3ccc(F)cc3)C2=O)n[nH]1`, the melting point lay within 251 to 253 °C.

Compound `C=CCOc1nc(Nc2ccc(OC)nc2)nc2c1ncn2CCCC` came in with a melting point of 147 to 149 °C.

Compound `CON(C)C(=O)Cc1cc(Oc2ccc(C(F)(F)F)cc2Cl)ccc1[N+](=O)[O-]` gave a melting point of 134 to 135 °C.

The compound `CC(=O)c1ccc(OCCNC(=O)OCc2ccccc2)cc1` displayed a melting point of 80 to 81 °C.

In the case of `O=C(O)CCCn1c(=O)c2ccccc2n(CCCCN2CCC(OC(c3ccccc3)c3ccccc3)CC2)c1=O`, the melting point was 132 to 133 °C.

`Clc1cnc(Br)c(Br)c1` gave a melting point of 39.5 to 43 °C.

`O=C(CN1C(=O)C(NC(=O)Nc2ccc(Cl)cc2)N=C(c2ccccc2)c2ccccc21)NCc1ccccc1` (stereo not drawn) had a melting point of 260 to 262 °C.

`Cn1nc(-c2c(F)cccc2Cl)nc1-c1ccc(CBr)c(Cl)c1` gave a melting point of 124 to 126 °C.

`Cc1cc(CN(Cc2ccco2)c2sc(-c3ccc(C(F)(F)F)cc3)nc2C)ccc1OC(C)(C)C(=O)O` displayed a melting point of 80 °C.

In turn, `CCCCOc1c(CNC(=O)OCC2c3ccccc3-c3ccccc32)n(CC(C)C)c(=O)c2ccc(-c3nc(C)c(C(=O)OCC)s3)cc12` gave a melting point of 203 to 204 °C.

`CC(C)c1cn2ccccc2c1S(=O)(=O)c1ccc(O)cc1` registered a melting point of 179 to 180 °C.

`Oc1nc2c(Cl)nc3ccccc3c2n1CC1CCOCC1` yielded a melting point greater than 275 °C.

The compound `COC(=O)Nc1ccccc1` registered a melting point of 45 to 46 °C.

Turning to `CC(C)(C)c1cc(CCc2ccccc2NC(=O)N2CCN(Cc3ccc4c(c3)OCO4)CC2)cc(C(C)(C)C)c1O`, the melting point is 149 to 151 °C.

`Cc1cc2c(cc1S(N)(=O)=O)S(=O)(=O)NC(c1cccnn1)=N2` returned a melting point of 330 to 335 °C.

For the compound `CC(C)n1c(/C=C/C2CC(O)CC(=O)O2)c(-c2ccc(F)cc2)c2ccccc2c1=O` (stereo not drawn), the melting point lay within 151 to 154 °C.

Regarding `N#CC=Cc1ccc(Cl)cc1C(=O)c1ccccc1`, the melting point was 89 to 91 °C.

`COC(=O)CCC(=O)c1ccc(-c2ccc(C)cc2)cc1`: the melting point was 121 to 122 °C.

As to `CC(C)CCCC(C)C1CC=C2C3=C(CCC21C)C1(C)CCC(F)CC1CC3` (stereo not drawn), the melting point amounted to 98.6 °C.

Turning to `Cc1c(NC(=O)CC(C)(C)C)c(C)c2c(c1-c1ccccc1)OCC2c1ccc(C(C)C)cc1` (stereo not drawn), the melting point lay within 178 to 182 °C.

As to `CCOC(=O)C1=C(N)NC(C)=CC1c1ccccc1` (stereo not drawn), the melting point was found to be 150 °C.

In the case of `CC1NC(=O)C2=C1c1ccc(Cl)cc1C(c1ccccc1Cl)=NC2` (stereo not drawn), the melting point is 239 to 241 °C.

In turn, `Nc1cccnc1N1CCN(C(=O)c2ccc(C(=O)O)cn2)CC1` yielded a melting point of 137 to 140 °C.

The compound `CNC(=O)c1cc(=O)c(-c2ccc(OC)c(OC)c2)co1` returned a melting point of 213 to 215 °C.

For the compound `N#CC=C1CCN(c2ccc(N3C[C@H](CNC(=S)CO)OC3=O)cc2F)CC1`, the melting point lay in the range of 102 to 105 °C.

`COc1ccc(CN2C(=O)C(O)(c3cc4c(C)noc4cc3O)c3ccccc32)cc1` (stereo not drawn) displayed a melting point of 199 to 201 °C.

With `O=C(C=Cc1c(-c2ccccc2)nn2ccccc12)N1CCCC[C@@H]1CCO`, the melting point fell in the range of 145 to 146 °C.

As for `OC(CCN1CCC(c2ccc(F)cc2)CC1)c1ccc(Cl)cc1` (stereo not drawn), the melting point was 108 to 110 °C.

For the compound `O=C(c1ccccc1)C(Cl)(Cl)C1CCCCC1`, the melting point lay within 92.5 to 94 °C.

Compound `COC(=O)[C@@H]1CC(=O)N(c2ccc(O)cc2)C1` had a melting point of 123 °C.

In turn, `COc1ccc2c(c1)c(CN(O)C(C)=O)c(C)n2C(=O)c1ccc(Cl)cc1` yielded a melting point of 160 to 161 °C.

`COC(=O)c1cscc1NC(=O)COc1ccc(Br)cn1` gave a melting point of 138 to 140 °C.

In turn, `CS(=O)(=O)c1ccc(-c2cc3n(c2-c2ccc(F)cc2)CCC3)cc1` showed a melting point of 154 °C.

Compound `COc1cc2ncc(C#N)c(Nc3ccc(F)c(Cl)c3)c2cc1NC(=O)C=CCN1CCC(O)C1` (stereo not drawn) displayed a melting point of 215 to 220 °C.

Consider `OC1CSC(Oc2cccc(-c3ccc(F)cn3)c2)C(O)C1O` (stereo not drawn), for which the melting point fell in the range of 168 to 201 °C.

Compound `Cc1nc2cnccc2n1-c1ccc(COc2ccccc2C(=O)O)cc1` came in with a melting point of 217 to 219 °C.

For `O=C1CC(S(=O)Cc2ccccc2)N1CCCc1ccccc1` (stereo not drawn), the melting point lay within 93 to 96 °C.

Compound `COc1ccc(C#N)c(F)c1OC(C)=O` returned a melting point of 90 to 91 °C.

`CCC1c2cccn2-c2ccc(C(F)(F)F)cc2N1S(=O)(=O)c1ccc(OC)c(C)c1` (stereo not drawn) yielded a melting point of 151 to 154 °C.

As to `N#CC1(N2CCN(c3ccccc3)CC2)CCCCC1`, the melting point lay within 133 to 135 °C.

On to `COc1cnn(CN(C(=O)CCl)c2c(C)cccc2C)c1`, for which the melting point lay within 115 to 116 °C.

(Values after a melting point compilation (Tetko et al.; mined from patent text by program, amines drawn as free bases though some values may be those of a salt).)
